Results reported in a compilation of properties of binary mixtures (doi:10.1016/j.jct.2020.106383).

Experiment: xn = mol fraction of the nth substance listed
Conditions: 100 kPa

CCCC[n+]1ccn(C)c1.O=S(=O)([N-]S(=O)(=O)C(F)(F)F)C(F)(F)F + CCOC(C)=O
x1 = 1
Conditions | speed of sound [m/s]
298.15 K | 1227.9
303.15 K | 1216.8
308.15 K | 1205.8
313.15 K | 1195
318.15 K | 1184.2
323.15 K | 1173.6

CCOC(C)=O + CCCC[n+]1ccn(C)c1.O=S(=O)([N-]S(=O)(=O)C(F)(F)F)C(F)(F)F
speed of sound [m/s]
Conditions | x2 = 0 | x2 = 0.1045 | x2 = 0.2067 | x2 = 0.3058 | x2 = 0.4012 | x2 = 0.5002 | x2 = 0.6065 | x2 = 0.7081 | x2 = 0.7932 | x2 = 0.9087
298.15 K | 1143.2 | – | 1172 | 1182.9 | 1192 | – | 1207.6 | 1213.7 | 1218.2 | –
303.15 K | 1120.8 | 1137.6 | 1151.9 | 1164 | 1174.2 | 1183.4 | 1192 | 1199.3 | – | 1211.6
308.15 K | 1098.7 | 1116.7 | 1132.1 | 1145.3 | – | 1166.9 | 1176.7 | 1185.1 | 1191.5 | 1199.6
313.15 K | 1076.4 | 1095.5 | 1112.1 | 1126.5 | 1138.8 | 1150.3 | 1161.3 | – | – | 1187.7
318.15 K | – | 1074.5 | – | 1107.8 | 1121.2 | – | 1146.1 | – | 1165.2 | –
323.15 K | 1032 | 1053.5 | 1072.5 | – | 1103.7 | 1117.4 | 1130.9 | 1142.8 | – | 1164.3
